Data taken from US20140221301A1, “COMBINATION TREATMENT FOR CANCER” (priority 2011, published 2014).

Legend:
solid tumour cell lines = experiment: Cell growth and viability, MTS assay, solid tumour cell lines; format: cell-based; conditions: 72 hours
Procedure: FIG. 1. […] (A) TEX and (B) M9-ENL1 cells were plated in 96-well plates and drugs were added to the wells (5 μL per well) for final concentrations of 10 μM (shown) and 1 μM. Cell growth and viability was measured at 48 hours (M9-ENL-1) and 72 hours (TEX) by MTS assay. Cell viability is shown for each compound as a percent of cells treated with DMSO alone. (C) Leukemia, (D) myeloma, and (E) solid tumor cell lines were seeded in 96-well plates and then treated with increasing concentrations of tigecycline. Cell growth and viability was measured at 72 hours by MTS assay. Cell viability is expressed as mean percentage plus or minus SD (n=3) relative to vehicle-treated cells. […] Cell viability was measured at 72 hours by MTS assay. Cell viability is expressed as mean percentage plus or minus SD (n=3) relative to vehicle-treated cells.
Human leukemia (OCI-AML2, HL60, U937) cell lines were maintained in RPMI 1640 medium. Myeloma (LP-1, KMS11, 8226, JJN3, OP-M2) cell lines were maintained in Iscove's media. […]
(§1) Cell growth and viability was assessed by the MTS assay (Promega, Madison, Wis.) according to the manufacturer's instructions. Apoptosis and cell death was measured by Annexin V-fluroscein isothiocyanate (FITC; Biovision Research Products, Mountain View, Calif.), propidium iodide staining and flow cytometry according to the manufacturer's instructions and as previously described^30.

TEX cells = experiment: Chemical screen, MTS assay, TEX cells; format: cell-based, human; conditions: 10 μM, 72 hours
Description: To identify compounds active against leukemia stem cells, a library of drugs (n=312) with well-characterized pharmacokinetics and toxicology and a wide therapeutic window was compiled. This library was then screened to identify agents that reduced the viability of TEX and M9-ENL1 cells. TEX and M9-ENL1 cells were derived from lineage-depleted human cord blood cells (Lin-CB) transduced with TLS-ERG or MLL-ENL oncogenes, respectively, and, as shown previously, display properties of stem cells including hierarchal differentiation and marrow repopulation^14, 15. In this screen, TEX and M9-ENL1 cells were treated with aliquots of the compounds. After incubation, cell growth and viability was measured by the MTS assay. From this screen, tigecycline was identified.
TEX, and M9-ENL-1 cells were seeded into 96-well polystyrene tissue culture plates (Corning). […] 72 (TEX) and 48 (M9-ENL-1) hours after incubation, cell growth and viability was measured by MTS assay. […]
as §1, with “described^30. […]” for “described^30.”

[1] = intravenous doses of 300 mg; cited from earlier work
[2] = system: Cox-1, Cox-2 (mitochondrially-translated subunits I and II) over Cox-4; experiment: Immunoblotting of cytochrome C oxidase subunits in leukemia cells; format: cell-based, human; conditions: TEX, OCI-AML2, two AML patients; 2.5 μM and 5 μM, 36 and 48 hours
Procedure: FIG. 4. […] (A) Cells from TEX, OCI-AML2 and two primary AML patients were treated with increasing concentrations (2.5 μM and 5 μM) of tigecycline for 36 and 48 hours of tigecycline. Total proteins were extracted and analyzed by western blotting for Cox-1, Cox-2, Cox-4, grp78, XIAP, actin and tubulin. (B) TEX and AML patient cells were treated with increasing concentrations (2.5 μM and 5 μM) of tigecycline. Cox-1, Cox-2, and Cox-4 mRNA expression relative 18S was determined by quantitative RT-PCR. Data is shown as mean±SD. (C) TEX cells were treated with increasing concentrations of tigecycline and chloramphenicol (CAP) for 72 hours. Complex I, II and IV enzyme activity relative to citrate synthase activity was determined as described in materials and methods. (D) Cells from TEX, primary AML patients, and normal donors were treated with increasing concentrations of tigecycline. Mitochondrial membrane potential (ΔΨ) was determined by staining cells with JC-1 dye, and flow cytometry analysis (Red/Green ratio). Reactive oxygen species generation (ROS) was determined by staining with h2-DCFDA and Dihydroethidium (DHE).
Total cell lysates were prepared from cells as described previously^32. […] Protein concentrations were measured by the DC Protein assay. […]

For CN(C)c1cc(NC(=O)CNC(C)(C)C)c(O)c2c1C[C@H]1C[C@H]3[C@H](N(C)C)C(O)=C(C(N)=O)C(=O)[C@@]3(O)C(O)=C1C2=O [tigecycline], the IC50 (solid tumour cell lines) is given as > 10 µM, the “cell growth and viability in screen” value (TEX cells) is given as “cell growth inhibitor” and the tolerability [1] is given as “well tolerated save for mild nausea”. For the same compound, the “protein level of mitochondrially-translated subunits I and II over nuclear-translated subunit IV” value [2] was “preferential decrease”.
